Results: ChEMBL document CHEMBL3352414, “Structure based inhibitor design targeting glycogen phosphorylase B. Virtual screening, synthesis, biochemical and biological assessment of novel N-acyl-β-d-glucopyranosylamines” (Bioorg Med Chem, 2014)
pKi: −log10 of the molar value.

Experiments:
[1] = biological target: T1, Glycogen phosphorylase, muscle form (Oryctolagus cuniculus, UniProt P00489); assay: Inhibition of rabbit skeletal muscle glycogen phosphorylase b assessed as inorganic phosphate release; settings: for pKi: read-out: Ki
T1 sequence (P00489 whole entry): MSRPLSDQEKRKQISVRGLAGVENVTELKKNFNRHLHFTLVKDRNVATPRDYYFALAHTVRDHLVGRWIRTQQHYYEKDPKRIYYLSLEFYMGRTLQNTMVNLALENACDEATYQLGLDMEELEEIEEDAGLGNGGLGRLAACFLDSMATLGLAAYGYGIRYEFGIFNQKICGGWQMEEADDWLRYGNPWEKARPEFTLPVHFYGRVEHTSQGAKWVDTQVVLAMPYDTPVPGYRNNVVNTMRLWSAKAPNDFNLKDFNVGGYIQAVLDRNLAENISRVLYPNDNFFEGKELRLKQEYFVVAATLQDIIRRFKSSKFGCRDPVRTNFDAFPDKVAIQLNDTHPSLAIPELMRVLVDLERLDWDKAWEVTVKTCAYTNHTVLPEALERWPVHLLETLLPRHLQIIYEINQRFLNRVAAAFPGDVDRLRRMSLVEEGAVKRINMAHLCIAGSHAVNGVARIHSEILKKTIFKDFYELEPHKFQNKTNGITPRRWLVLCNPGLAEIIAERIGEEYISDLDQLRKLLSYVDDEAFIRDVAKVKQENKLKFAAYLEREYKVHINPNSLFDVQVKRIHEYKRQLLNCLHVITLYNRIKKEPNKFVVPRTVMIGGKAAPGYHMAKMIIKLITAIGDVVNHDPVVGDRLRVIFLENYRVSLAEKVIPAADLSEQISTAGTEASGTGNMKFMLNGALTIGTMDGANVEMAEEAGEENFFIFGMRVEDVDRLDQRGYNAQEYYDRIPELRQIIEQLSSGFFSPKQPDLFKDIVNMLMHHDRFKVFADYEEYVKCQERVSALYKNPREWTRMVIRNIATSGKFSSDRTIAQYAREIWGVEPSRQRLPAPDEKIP

[2] = Permeability in human Caco2 cells; assay type: ADME, cell-based; settings: Caco-2, read-out: permeability
[3] = Octanol water partition coefficient, logP of the compound; assay type: physicochemical

SMILES | pKi [1] | Papp [2] | logP [3] | Ki [1]
O=C(N[C@@H]1O[C@H](CO)[C@@H](O)[C@H](O)[C@H]1O)[C@H](O)[C@@H](O)[C@H](O)[C@H](O)CO | 3.47 | – | – | –
O=C(NC(=O)c1ccc(C(F)(F)F)cc1)N[C@@H]1O[C@H](CO)[C@@H](O)[C@H](O)[C@H]1O | 5.74 | – | – | –
O=C(Nc1ccc2ccccc2c1)C(=O)N[C@@H]1O[C@H](CO)[C@@H](O)[C@H](O)[C@H]1O | 4.25 | – | – | –
O=C(/C=C/c1ccccc1)N[C@@H]1O[C@H](CO)[C@@H](O)[C@H](O)[C@H]1O | 4.74 | – | – | –
O=C(CCNC(=O)c1ccc(F)c(F)c1)N[C@@H]1O[C@H](CO)[C@@H](O)[C@H](O)[C@H]1O | – | 3.14 ×10⁻⁶ cm/s | -0.807 | –
O=C(NC(=O)c1ccccn1)N[C@@H]1O[C@H](CO)[C@@H](O)[C@H](O)[C@H]1O | 4.17 | – | – | –
O=C(N[C@@H]1O[C@H](CO)[C@@H](O)[C@H](O)[C@H]1O)c1cccc2ccccc12 | 5.00 | – | – | –
N[C@@H](Cc1c[nH]c2ccccc12)C(=O)N[C@@H]1O[C@H](CO)[C@@H](O)[C@H](O)[C@H]1O | – | 0.4 ×10⁻⁶ cm/s | -2.1 | –
C[C@@H]1C[C@@]1(C(=O)N[C@@H]1O[C@H](CO)[C@@H](O)[C@H](O)[C@H]1O)c1cccc2ccccc12 | – | 14.5 ×10⁻⁶ cm/s | 0.255 | –
CCc1ccc([C@H](C)CC(=O)N[C@@H]2O[C@H](CO)[C@@H](O)[C@H](O)[C@H]2O)cc1 | 3.42 | 8.9 ×10⁻⁶ cm/s | -0.162 | –
O=C(CCc1ncc(-c2ccccc2)o1)N[C@@H]1O[C@H](CO)[C@@H](O)[C@H](O)[C@H]1O | – | 3.65 ×10⁻⁶ cm/s | -0.915 | –
CC(C)N(C(=O)C(=O)N[C@@H]1O[C@H](CO)[C@@H](O)[C@H](O)[C@H]1O)C(C)C | – | – | – | Not Active
O=C(NC1CC1)C(=O)N[C@@H]1O[C@H](CO)[C@@H](O)[C@H](O)[C@H]1O | 2.85 | – | – | –
O=C(Nc1ccccc1)N[C@@H]1O[C@H](CO)[C@@H](O)[C@H](O)[C@H]1O | 4.74 | – | – | –
Cc1ccc2c(c1)C=C(C(=O)N[C@@H]1O[C@H](CO)[C@@H](O)[C@H](O)[C@H]1O)C(=O)C2 | – | 3.62 ×10⁻⁶ cm/s | -0.451 | –
O=C(Nc1cccc2ccccc12)C(=O)N[C@@H]1O[C@H](CO)[C@@H](O)[C@H](O)[C@H]1O | 3.84 | – | – | –
CC(C)c1ccc(C[C@H](C)C(=O)N[C@@H]2O[C@H](CO)[C@@H](O)[C@H](O)[C@H]2O)cc1 | 4.12 | 7.67 ×10⁻⁶ cm/s | 0.01 | –
CC(C)(C)c1ccc(/C=C/C(=O)N[C@@H]2O[C@H](CO)[C@@H](O)[C@H](O)[C@H]2O)cc1 | – | 8.77 ×10⁻⁶ cm/s | 0.496 | –
COC(=O)CCCC(=O)N[C@@H]1O[C@H](CO)[C@@H](O)[C@H](O)[C@H]1O | 4.08 | – | – | –
O=C(Cc1ccccc1)NC(=O)N[C@@H]1O[C@H](CO)[C@@H](O)[C@H](O)[C@H]1O | 3.22 | – | – | –

SMILES | pKi [1] | Papp [2] | logP [3] | Ki [1]
COc1cc(/C=C/C(=O)N[C@@H]2O[C@H](CO)[C@@H](O)[C@H](O)[C@H]2O)cc(OC)c1 | – | 8 ×10⁻⁶ cm/s | -0.36 | –
O=C(N[C@@H]1O[C@H](CO)[C@@H](O)[C@H](O)[C@H]1O)C(F)(F)F | 4.09 | – | – | –
CC(C)(Oc1ccc2ccccc2c1)C(=O)N[C@@H]1O[C@H](CO)[C@@H](O)[C@H](O)[C@H]1O | – | 10.6 ×10⁻⁶ cm/s | 0.037 | –
Cc1ccc(-c2cnc(CCC(=O)N[C@@H]3O[C@H](CO)[C@@H](O)[C@H](O)[C@H]3O)o2)cc1 | – | 5.4 ×10⁻⁶ cm/s | -0.574 | –
COC(=O)c1cccc(C(=O)N[C@@H]2O[C@H](CO)[C@@H](O)[C@H](O)[C@H]2O)c1 | 3.24 | – | – | –
COC(=O)C(=O)N[C@@H]1O[C@H](CO)[C@@H](O)[C@H](O)[C@H]1O | 3.68 | – | – | –
O=C(N[C@@H]1O[C@H](CO)[C@@H](O)[C@H](O)[C@H]1O)C1CCCCC1 | 3.54 | – | – | –
O=C(N[C@@H]1O[C@H](CO)[C@@H](O)[C@H](O)[C@H]1O)c1ccccc1 | 4.09 | – | – | –
CCc1ccc(/C=C/C(=O)N[C@@H]2O[C@H](CO)[C@@H](O)[C@H](O)[C@H]2O)cc1 | – | 9.47 ×10⁻⁶ cm/s | 0.04 | –
O=C(C#Cc1ccccc1)N[C@@H]1O[C@H](CO)[C@@H](O)[C@H](O)[C@H]1O | 4.21 | – | – | –
COC(=O)c1ccc(/C=C/C(=O)N[C@@H]2O[C@H](CO)[C@@H](O)[C@H](O)[C@H]2O)cc1 | – | 2.63 ×10⁻⁶ cm/s | -0.805 | –
O=C(N[C@@H]1O[C@H](CO)[C@@H](O)[C@H](O)[C@H]1O)C1=Cc2cc(Cl)ccc2OC1 | – | 9.4 ×10⁻⁶ cm/s | -0.169 | –
CC(=O)N[C@@H]1O[C@H](CO)[C@@H](O)[C@H](O)[C@H]1O | 4.49 | – | – | –
O=C(NC(=O)c1cc2ccccc2[nH]1)N[C@@H]1O[C@H](CO)[C@@H](O)[C@H](O)[C@H]1O | 5.40 | – | – | –
O=C1Cc2ccc(Cl)cc2C=C1C(=O)N[C@@H]1O[C@H](CO)[C@@H](O)[C@H](O)[C@H]1O | – | 3.85 ×10⁻⁶ cm/s | -0.221 | –
C[C@@H](Cc1ccc(C(C)(C)C)cc1)C(=O)N[C@@H]1O[C@H](CO)[C@@H](O)[C@H](O)[C@H]1O | – | 10 ×10⁻⁶ cm/s | 0.379 | –
O=C(N[C@@H]1O[C@H](CO)[C@@H](O)[C@H](O)[C@H]1O)C(c1ccccc1)c1ccccc1 | – | – | – | Not Active
O=C(Nc1ccccc1)C(=O)N[C@@H]1O[C@H](CO)[C@@H](O)[C@H](O)[C@H]1O | 4.00 | – | – | –
CC(C)c1ccc([C@@H](C)CC(=O)N[C@@H]2O[C@H](CO)[C@@H](O)[C@H](O)[C@H]2O)cc1 | – | 7.87 ×10⁻⁶ cm/s | 0.075 | –
N[C@H](Cc1c[nH]c2ccccc12)C(=O)N[C@@H]1O[C@H](CO)[C@@H](O)[C@H](O)[C@H]1O | – | 0.47 ×10⁻⁶ cm/s | -2.09 | –

SMILES | pKi [1] | Papp [2] | logP [3] | Ki [1]
C[C@H](CC(=O)N[C@@H]1O[C@H](CO)[C@@H](O)[C@H](O)[C@H]1O)c1ccc(C(C)(C)C)cc1 | – | 9.77 ×10⁻⁶ cm/s | 0.33 | –
O=C(N[C@@H]1O[C@H](CO)[C@@H](O)[C@H](O)[C@H]1O)[C@H](O)[C@@H](O)[C@@H](O)[C@H](O)CO | 3.65 | – | – | –
CC(C)(C)c1ccc(C(=O)NC(=O)N[C@@H]2O[C@H](CO)[C@@H](O)[C@H](O)[C@H]2O)cc1 | 6.15 | – | – | –
O=C(Nc1ccc2ccccc2c1)N[C@@H]1O[C@H](CO)[C@@H](O)[C@H](O)[C@H]1O | 5.28 | – | – | –
COC(=O)CCC(=O)N[C@@H]1O[C@H](CO)[C@@H](O)[C@H](O)[C@H]1O | 3.77 | – | – | –
O=C(/C=C/c1ccc2ccccc2c1)N[C@@H]1O[C@H](CO)[C@@H](O)[C@H](O)[C@H]1O | 5.46 | – | – | –
CCOC(=O)C(=O)N[C@@H]1O[C@H](CO)[C@@H](O)[C@H](O)[C@H]1O | 3.04 | – | – | –
O=C(CCc1ccccc1)N[C@@H]1O[C@H](CO)[C@@H](O)[C@H](O)[C@H]1O | 4.07 | – | – | –
O=C(C[C@H]1CC(=O)c2c(F)cc(F)cc21)N[C@@H]1O[C@H](CO)[C@@H](O)[C@H](O)[C@H]1O | – | 3.17 ×10⁻⁶ cm/s | -1.21 | –
COc1ccc(/C=C/C(=O)N[C@@H]2O[C@H](CO)[C@@H](O)[C@H](O)[C@H]2O)c(O)c1 | – | 3.89 ×10⁻⁶ cm/s | -0.958 | –
Cc1ccccc1[C@H](Cc1ccco1)C(=O)N[C@@H]1O[C@H](CO)[C@@H](O)[C@H](O)[C@H]1O | – | 12.2 ×10⁻⁶ cm/s | 0.004 | –
CC(C)(C(=O)N[C@@H]1O[C@H](CO)[C@@H](O)[C@H](O)[C@H]1O)c1cccc2ccccc12 | – | 14.7 ×10⁻⁶ cm/s | 0.085 | –
CC[C@H](CC(=O)N[C@@H]1O[C@H](CO)[C@@H](O)[C@H](O)[C@H]1O)c1ccc(C)c(C)c1 | – | 7.67 ×10⁻⁶ cm/s | 0.01 | –
O=C(O)C(=O)N[C@@H]1O[C@H](CO)[C@@H](O)[C@H](O)[C@H]1O | 3.15 | – | – | –
COC(=O)c1ccc(C(=O)N[C@@H]2O[C@H](CO)[C@@H](O)[C@H](O)[C@H]2O)cc1 | 3.48 | – | – | –
O=C(Cn1cc(-c2ccccc2)nn1)N[C@@H]1O[C@H](CO)[C@@H](O)[C@H](O)[C@H]1O | 3.74 | – | – | –
O=C(Nc1ccccn1)C(=O)N[C@@H]1O[C@H](CO)[C@@H](O)[C@H](O)[C@H]1O | 3.64 | – | – | –
O=C(C[C@H](c1ccc(Cl)cc1)C1CC1)N[C@@H]1O[C@H](CO)[C@@H](O)[C@H](O)[C@H]1O | – | 6.97 ×10⁻⁶ cm/s | 0.083 | –
